SMILES strings stand for the structures.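 Cultured in 96-well plates, cells were exposed to test compound for 48 hours across five concentrations. GI50: concentration for 50% inhibition of growth.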 The source made the active and inactive calls. No stated cut-off is given here; in the data, active = GI50 up to about 1.1 µM and inactive = higher.

Test systems include RXF 631; DLD-1; KM-20L2; LXFL 529; XF498; SNB-78; HOP-18; M19-MEL.
Holding throughout (experiment): NCI tumour cell line growth inhibition, 48 h

`CCCCCCCCCC1CC(=O)OC2=C1C(=O)CCC2` (stereo not drawn): the GI50 in the assay on RXF 631, in the assay on DLD-1, in the assay with KM-20L2, with LXFL 529, in the assay on XF498 and with SNB-78 was > 100 µM (inactive) in each case. Also, the GI50 in the assay with HOP-18 and in the assay on M19-MEL was > 100 µM (inactive) throughout.

With `COc1cc2c(c(OC)c1OC)-c1ccc(OC)c(=O)cc1[C@@H](NC(=O)c1ccccc1)CC2`, the GI50 in the assay on RXF 631 is 0.0115 µM (active); with DLD-1, < 0.0124 µM (active); with KM-20L2 it was < 0.01 µM (active); with LXFL 529 it was < 0.01 µM (active); in the assay on XF498, < 0.01 µM (active); with SNB-78, < 0.01 µM (active). Further, the GI50 with HOP-18 is 97.5 µM (inactive); in the assay with M19-MEL, < 0.01 µM (active).

Take `CCc1cccc(C(C)C)c1NC(=O)/C(=N\NC(N)=O)C(C(=O)OC)c1cnc2ccccc2n1` (stereo not drawn): the GI50 in the assay on RXF 631 is 55.2 µM (inactive); in the assay on DLD-1, 79.6 µM (inactive); in the assay with KM-20L2, 41.6 µM (inactive); with LXFL 529 it was 52.4 µM (inactive); with XF498, > 100 µM (inactive); in the assay on SNB-78, > 100 µM (inactive). The GI50 with HOP-18 was 19.1 µM (inactive); in the assay on M19-MEL, 15.9 µM (inactive).

In the case of `O=[N+]([O-])c1cccc(C(O)/C(=N/Nc2ccccc2)C2Nc3ccc([N+](=O)[O-])cc3N=C2O)c1` (stereo not drawn), the GI50 was > 100 µM (inactive) in the assay on RXF 631; > 100 µM (inactive) with DLD-1; 23.1 µM (inactive) in the assay on KM-20L2; 37.6 µM (inactive) in the assay with LXFL 529; > 100 µM (inactive) with XF498; > 100 µM (inactive) in the assay with SNB-78. The GI50 in the assay on M19-MEL was 45.4 µM (inactive).

Take `O=C(c1ccccc1)c1ccc2cccc(O)c2n1`: the GI50 with RXF 631 is 55.1 µM (inactive); with DLD-1, 27 µM (inactive); in the assay with KM-20L2, 35.6 µM (inactive); in the assay on XF498, 29.2 µM (inactive); in the assay on SNB-78, 46.5 µM (inactive); with HOP-18, 36.1 µM (inactive). The GI50 in the assay with M19-MEL was 28.8 µM (inactive).

As for `Clc1ccc(Cc2nc3ccccc3s2)c(Cl)c1`, the GI50 with RXF 631 was 16.4 µM (inactive); in the assay with DLD-1 it was 15.3 µM (inactive); in the assay on KM-20L2, 25.6 µM (inactive); in the assay with LXFL 529, 16.8 µM (inactive); with XF498, 13.6 µM (inactive); in the assay on HOP-18, 16 µM (inactive). Besides, the GI50 with M19-MEL is 15.7 µM (inactive).

Regarding `O=C(Cc1nc2ccccc2s1)Nc1cccc(C(F)(F)F)c1`, the GI50 in the assay with RXF 631 was 13.8 µM (inactive); with DLD-1, 14.2 µM (inactive); with KM-20L2, 20.4 µM (inactive); in the assay on LXFL 529, 13.4 µM (inactive); in the assay with XF498, 14.8 µM (inactive); in the assay with HOP-18, 18.5 µM (inactive). Moreover, the GI50 in the assay on M19-MEL is 13 µM (inactive).

For `O=[N+]([O-])c1ccc(C2=Nc3ccccc3[S+]([O-])C(c3ccccc3)C2)cc1` (stereo not drawn), the GI50 was 17.1 µM (inactive) with RXF 631; 18.6 µM (inactive) with DLD-1; 23.7 µM (inactive) with KM-20L2; 13.5 µM (inactive) in the assay on LXFL 529; 21.4 µM (inactive) in the assay with XF498; 24.9 µM (inactive) with HOP-18. In the assay with M19-MEL, the GI50 is 14.6 µM (inactive).

Take `CCCCOCN/C(N)=N/C#N`: the GI50 in the assay with RXF 631, in the assay with DLD-1, in the assay with KM-20L2, in the assay on LXFL 529, in the assay with XF498 and with SNB-78 was > 100 µM (inactive) in each case. For the same compound, in the assay with HOP-18, the GI50 was > 100 µM (inactive).

As to `COC(=O)CCC(=O)C(C#N)c1ccc(Cl)cc1Cl` (stereo not drawn), the GI50 with RXF 631, in the assay on DLD-1, in the assay with KM-20L2, in the assay on LXFL 529, with XF498 and with SNB-78 was > 100 µM (inactive) in each case. Moreover, in the assay on M19-MEL, the GI50 is > 100 µM (inactive).

Values taken from ChEMBL document CHEMBL1201862, “PubChem BioAssay data set” (2004).
